Laboratory results from article PMC7161708 (Acta Pharmaceutica Sinica. B, 2019).

Tests used:
[1] = system: phosphorylation of p70S6K; test: Inhibition of p70S6K phosphorylation, α-screen assay in SH-SY5Y cell; assay type: cell-based; details: mean ± SD (n ≥ 3)
[2] = from PAMPA–BBB Pe
in vitro = details: PAMPA

Row | SMILES | Inhibition ratio of p70S6K phosphorylation at 20 μmol/L (%) [1] | Prediction of BBB penetration [2] | Papp at 10 h, 100 μg/mL (in vitro)
1 | O=C(Nc1ncc(N2CCOCC2)s1)c1cccc2ccccc12 [Compound 30, N-(5-Morpholinothiazol-2-yl)-1-naphthamide] | 78.75±2.50% | CNS+ (Compounds with permeabilities Pe > 3.08 × 10^−6 cm/s could cross the BBB by passive diffusion (CNS+)) | 5.76 ± 0.55 ×10⁻⁶ cm/s
2 | CCC(=O)Nc1ncc(N2CCOCC2)s1 [Compound 46, N-(5-Morpholinothiazol-2-yl)propionamide] | 44.98±8.58% |  | 
3 | O=C(Nc1ncc(N2CCOCC2)s1)C1CC1 [Compound 39, N-(5-Morpholinothiazol-2-yl)cyclopropanecarboxamide] | 63.76±1.31% |  | 
4 | CC(=O)Nc1ncc(N2CCOCC2)s1 [Compound 45, N-(5-Morpholinothiazol-2-yl)acetamide] | 43.86±4.45% |  | 
5 | CC(=O)Oc1ccccc1C(=O)Nc1ncc(-n2cccc2)s1 [Compound 13, 2-Acetyloxy-N-(5-(1H-pyrrol-1-yl)thiazol-2-yl)benzamide] | 69.85±0.53% |  | 
6 | Cc1ccccc1C(=O)Nc1ncc(N2CCOCC2)s1 [Compound 28, 2-Methyl-N-(5-morpholinothiazol-2-yl)benzamide] | 55.38±1.66% |  | 
7 | CC(=O)Oc1ccccc1C(=O)Nc1ncc(C(=O)O)s1 [Compound 10, 2-(2-Acetoxybenzamido)thiazole-5-carboxylic acid] | −4.51±19.40% |  | 
8 | O=C(Nc1ncc(N2CCOCC2)s1)c1ccccc1F [Compound 26, 2-Fluoro-N-(5-morpholinothiazol-2-yl)benzamide] | 65.98±1.74% |  | 
9 | O=C(Nc1ncc(N2CCOCC2)s1)c1ccccc1[N+](=O)[O-] [Compound 27, N-(5-Morpholinothiazol-2-yl)-2-nitrobenzamide] | 53.24±5.72% |  | 
10 | O=C(Nc1ncc(N2CCOCC2)s1)c1ccc(Cl)cc1O [Compound 16, 4-Chloro-2-hydroxy-N-(5-morpholinothiazol-2-yl)benzamide] | 21.02±4.56% |  | 
11 | O=C(Nc1ncc(N2CCOCC2)s1)c1ccco1 [Compound 32, N-(5-Morpholinothiazol-2-yl)furan-2-carboxamide] | 81.09±4.27% | CNS+ (Compounds with permeabilities Pe > 3.08 × 10^−6 cm/s could cross the BBB by passive diffusion (CNS+)) | 6.16 ± 0.5 ×10⁻⁶ cm/s
12 | Cc1ccc(C(=O)Nc2ncc(N3CCOCC3)s2)s1 [Compound 37, 5-Methyl-N-(5-morpholinothiazol-2-yl)thiophene-2-carboxamide] | 81.20±1.60% | CNS+ (Compounds with permeabilities Pe > 3.08 × 10^−6 cm/s could cross the BBB by passive diffusion (CNS+)) | 9.89 ± 0.37 ×10⁻⁶ cm/s
13 | O=C(Nc1ncc(N2CCOCC2)s1)c1cccc(O)c1 [Compound 20, 3-Hydroxy-N-(5-morpholinothiazol-2-yl)benzamide] | 83.86±1.54% | CNS− (Compounds with Pe < 1.13 × 10^−6 cm/s show low BBB permeation (CNS−)) | 0.45 ± 0.03 ×10⁻⁶ cm/s
14 | CC(=O)Oc1ccccc1C(=O)Nc1ncc(C(=O)OCc2ccccc2)s1 [Compound 7, Benzyl 2-(2-acetoxybenzamido)thiazole-5-carboxylate] | 18.88±5.27% |  | 
15 | O=C(Nc1ncc(N2CCOCC2)s1)C1CCCC1 [Compound 41, N-(5-Morpholinothiazol-2-yl)cyclopentanecarboxamide] | 63.37±4.65% |  | 
16 | O=C(Nc1ncc(N2CCOCC2)s1)c1ccoc1 [Compound 34, N-(5-Morpholinothiazol-2-yl)furan-3-carboxamide] | 80.23±0.88% | CNS+ (Compounds with permeabilities Pe > 3.08 × 10^−6 cm/s could cross the BBB by passive diffusion (CNS+)) | 6.82 ± 0.5 ×10⁻⁶ cm/s
17 | COc1ccccc1C(=O)Nc1ncc(N2CCOCC2)s1 [Compound 29, 2-Methoxy-N-(5-morpholinothiazol-2-yl)benzamide] | 26.90±6.23% |  | 
18 | O=C(Nc1ncc([N+](=O)[O-])s1)c1ccccc1O [Compound 2, tizoxanide, reference compound] | 43.09±2.98% |  | 
19 | CC(=O)Oc1ccccc1C(=O)Nc1ncc(N2CCNCC2)s1 [Compound 14, 2-Acetyloxy-N-(5-(piperazin-1-yl)thiazol-2-yl)benzamide] | 28.21±6.44% |  | 
20 | CC(C)CC(=O)Nc1ncc(N2CCOCC2)s1 [Compound 49, 3-Methyl-N-(5-morpholinothiazol-2-yl)butanamide] | 40.38±3.37% |  | 
21 | O=C(Nc1ncc(N2CCOCC2)s1)c1ccsc1 [Compound 35, N-(5-Morpholinothiazol-2-yl)thiophene-3-carboxamide] | 79.84±1.17% | CNS+ (Compounds with permeabilities Pe > 3.08 × 10^−6 cm/s could cross the BBB by passive diffusion (CNS+)) | 9.24 ± 0.47 ×10⁻⁶ cm/s
22 | O=C(Nc1ncc(N2CCOCC2)s1)c1ccc(C(F)(F)F)cc1O [Compound 18, 2-Hydroxy-N-(5-morpholinothiazol-2-yl)-4-(trifluoromethyl)benzamide] | 8.76±5.93% |  | 

Row | SMILES | Inhibition ratio of p70S6K phosphorylation at 20 μmol/L (%) [1] | Prediction of BBB penetration [2] | Papp at 10 h, 100 μg/mL (in vitro)
23 | O=C(Nc1ncc(N2CCOCC2)s1)c1ccccc1 [Compound 24, N-(5-Morpholinothiazol-2-yl)benzamide] | 77.51±1.48% | CNS+ (Compounds with permeabilities Pe > 3.08 × 10^−6 cm/s could cross the BBB by passive diffusion (CNS+)) | 12.6 ± 1.22 ×10⁻⁶ cm/s
24 | O=C(Nc1ncc(N2CCOCC2)s1)c1ccc(O)cc1 [Compound 21, 4-Hydroxy-N-(5-morpholinothiazol-2-yl)benzamide] | 79.20±1.87% | CNS− (Compounds with Pe < 1.13 × 10^−6 cm/s show low BBB permeation (CNS−)) | 0.09 ± 0.01 ×10⁻⁶ cm/s
25 | O=C1CCCCC1C(=O)Nc1ncc(N2CCOCC2)s1 (stereo not drawn) [Compound 53, N-(5-Morpholinothiazol-2-yl)-2-oxocyclohexanecarboxamide] | 44.94±4.00% |  | 
26 | CC(=O)Oc1ccccc1C(=O)Nc1ncc(N2CCCCC2)s1 [Compound 11, 2-Acetyloxy-N-(5-(piperidin-1-yl)thiazol-2-yl)benzamide] | 56.27±4.61% |  | 
27 | O=C(Nc1ncc(N2CCOCC2)s1)c1ccc(F)cc1O [Compound 15, 4-Fluoro-2-hydroxy-N-(5-morpholinothiazol-2-yl)benzamide] | 42.25±0.19% |  | 
28 | COC[C@H]1OC(=O)c2coc3c2[C@@]1(C)C1=C(C3=O)[C@@H]2CCC(=O)[C@@]2(C)C[C@H]1OC(C)=O [WORT, wortmannin, reference compound] | 90.68±1.46% |  | 
29 | O=C(Cc1ccccc1)Nc1ncc(N2CCOCC2)s1 [Compound 51, N-(5-Morpholinothiazol-2-yl)-2-phenylacetamide] | 47.82±3.90% |  | 
30 | CC(=O)Oc1ccccc1C(=O)Nc1ncc(C#N)s1 [Compound 5, 2-Acetyloxy-N-(5-cyanothiazol-2-yl)benzamide] | 70.85±3.56% |  | 
31 | O=C(Nc1ncc(N2CCOCC2)s1)C1CCCCC1 [Compound 42, N-(5-Morpholinothiazol-2-yl)cyclohexanecarboxamide] | 61.15±1.44% |  | 
32 | O=C(Nc1ncc(N2CCOCC2)s1)C1CCC1 [Compound 40, N-(5-Morpholinothiazol-2-yl)cyclobutanecarboxamide] | 66.21±3.74% |  | 
33 | CC(=O)Oc1ccccc1C(=O)Nc1nccs1 [Compound 4, 2-Acetyloxy-N-(thiazol-2-yl)benzamide] | 9.98±5.16% |  | 
34 | O=C(Nc1ncc(N2CCOCC2)s1)c1ccccc1O [Compound 19, 2-Hydroxy-N-(5-morpholinothiazol-2-yl)benzamide] | 53.79±3.85% |  | 
35 | CCCCCC(=O)Nc1ncc(N2CCOCC2)s1 [Compound 48, N-(5-Morpholinothiazol-2-yl)hexanamide] | 61.32±5.39% |  | 
36 | O=C(Nc1ncc(N2CCOCC2)s1)c1ccccc1C(F)(F)F [Compound 25, N-(5-Morpholinothiazol-2-yl)-2-(trifluoromethyl)benzamide] | 22.05±1.85% |  | 
37 | CSc1cnc(NC(=O)c2ccccc2OC(C)=O)s1 [Compound 8, 2-Acetyloxy-N-(5-(methylthio)thiazol-2-yl)benzamide] | 44.74±9.98% |  | 
38 | CC(=O)Oc1ccccc1C(=O)Nc1ncc(S(C)(=O)=O)s1 [Compound 9, 2-Acetyloxy-N-(5-(methylsulfonyl)thiazol-2-yl)benzamide] | 10.67±10.51% |  | 
39 | COC(=O)c1cnc(NC(=O)c2ccccc2OC(C)=O)s1 [Compound 6, Methyl 2-(2-acetoxybenzamido)thiazole-5-carboxylate] | 32.72±7.87% |  | 
40 | O=C(Nc1ncc(N2CCOCC2)s1)c1ccc(Br)cc1O [Compound 17, 4-Bromo-2-hydroxy-N-(5-morpholinothiazol-2-yl)benzamide] | 15.41±5.32% |  | 
41 | CCCC(=O)Nc1ncc(N2CCOCC2)s1 [Compound 47, N-(5-Morpholinothiazol-2-yl)butyramide] | 61.71±2.51% |  | 
42 | O=C(Nc1ncc(N2CCOCC2)s1)C1CCCCCC1 [Compound 43, N-(5-Morpholinothiazol-2-yl)cycloheptanecarboxamide] | 51.10±1.59% |  | 
43 | CC(=O)CC(=O)Nc1ncc(N2CCOCC2)s1 [Compound 54, N-(5-Morpholinothiazol-2-yl)-3-oxobutanamide] | 66.46±3.73% |  | 
44 | O=C(CCC(F)(F)F)Nc1ncc(N2CCOCC2)s1 [Compound 50, 4,4,4-Trifluoro-N-(5-morpholinothiazol-2-yl)butanamide] | 61.35±5.44% |  | 
